Data from patent US6998387B1, “Human appetite control by glucagon-like peptide receptor binding compounds” (Amylin Pharmaceuticals, Inc., priority 1998, dated 2006).
Entries after “also recorded” stand apart in the source; their conditions may differ. Read-outs that look alike come from different tables or passages of the source.

What was measured:
rats = settings: cited from earlier work
[1] = system: patients with diabetes mellitus type 2; test: Effect of GLP-1 infusion on eating behaviour in diabetes mellitus type 2 (Example 2)
Method: Twelve male patients were recruited for the study who had diabetes mellitus type 2 for at least one year. Patients were admitted to a Research Unit after given written informed consent and after the experimental protocol had been explained to them. The mean age of the patients was 55±2 years; their mean HbA1C was 8.1±4 and their mean BMi was 29.4±1.2. Seven patients were on oral antidiabetics. The participants were tested on two different days in a placebo-controlled, randomized, double-blind, crossover study. The two test days were separated by at least one week and by no more than three weeks.
On each test day, patients arrived in the Research Unit in the morning, having fasted overnight. A standardized, fixed energy breakfast was then served and it had to be completed before 8:30 a.m. After breakfast, patients were able to read and listen to music. At 11:00 a.m., two venflon catheters were inserted into the anticubital veins of each arm, one for infusion, the other one for blood drawing. […] Infusions were delivered by ambulatory infusion pumps. 60 min after the start of the respective infusion, a test meal was presented and the participants were invited to eat and drink as much as they liked.
Beginning with the infusions, participants scored their subjective feelings of hunger and fullness in 15 min intervals throughout the experiments using visual analogue scales (VAS) of 0–10 with text expressing the most positive and most negative rating anchored at each end. VAS were used to assess hunger, fullness, and prospective food consumption using scales and scores which have previously been designed.
Each subject was free to eat and drink as much as they wished until “comfortably satisfied” of a standard meal which consisted of a) orange juice as an appetizer (480 kcal/l); b) ham sandwiches (60 g, 10 g butter, 25 g ham: 266 kcal/sandwich) with more orange juice or with water; c) strawberry mousse (100 kcal/100 g); d) coffee with cream (coffee could be sweetened with aspartam if desired; both cream and aspartan were optional; 12 g cream=20 kcal). No additional food or fluid was allowed during the study. In addition, the order of food intake had to follow the above schedule. To reduce participants' awareness of the amount of food being provided, food was served in excess. The quantity of food eaten and the quantity of fluid drunk were measured. From these observations, the total energy intake could be calculated. In the pre-meal period and after eating, blood samples were taken in regular intervals for glucose and hormone determinations. Adverse events were assessed by the attending physician through close observation of each patient; in addition, each participant was questioned after each experiment and after they had completed the two tests whether they had experienced any adverse events.
The peptide was dissolved in 0.9% saline solution containing 0.5% human serum albumin and prepared under aseptic conditions by the University of Basel Hospital Pharmacy. Aliquots of 50 μg/5 ml were stored at −20° C. […] The solutions were prepared by a pharmacist who was not involved in the study. The physician in charge of the experiment was therefore not aware of the respective treatment, thereby making it possible to conduct treatments in a double-blind fashion.
The amount of food eaten and the amount of fluid drunk as well as the corresponding energy intake were compared between the two treatments by Wilcoxon Signed Ranks Test using an SAS software package. […] Scores for hunger and fullness were compared by calculating the S score from baseline (0 min) to 60 min of infusion using the Wilcoxon Signed Ranks Test. Differences were considered significant if p was <0.05.

healthy male subjects = test: Effect of graded intravenous doses of synthetic human GLP-1 on food intake (Example 1); settings: for Calorie intake / Fluid intake / Food quantity / Meal duration: 16 healthy male subjects, mean, SEM
Method: A randomized, double-blind design was carried out with 16 healthy men aged 23.6±0.5 years. The weight of all subjects was within normal range considering their age, sex, and height. Each subject gave written informed consent for the study.
Four treatments (0, 0.375, 0.75 and 1.5 pmol/kg), separated by at least 7 days, were administered to the 16 subjects. […] An identical standard meal was presented to the subjects on each occasion. The meal consisted of orange juice as an appetizer (480 kcal per 1); ham sandwiches (60 g bread, 10 g butter, 25 g ham 266 kcal per sandwich) and more orange juice and chocolate pudding (172 kcal per 100 g): coffee with cream and sugar (coffee could be sweetened if desired; therefore both cream and sugar were optional @ 12 g cream=20 kcal, 4.5 sugar=18 kcal). No other food or liquid was allowed during the study. At the end of the study, the amount of food eaten and the amount of fluid ingested was measured by absolute weight from which total caloric intake (food and fluid intake) was calculated.
Each subject was free to eat and drink as much as they wished, but the order of food intake had to follow the above schedule. To reduce participant's awareness of the amount of food being provided, food was served in excess.
On the first day of each treatment, each subject ate breakfast, if this was their normal custom; however, no snacks were allowed after 8:00 a.m. […] Infusions were delivered by ambulatory infusion pumps through a teflon catheter inserted into a forearm vein. Participants were able to sit, eat, stand and walk comfortably while receiving infusions. At 60 minutes after the start of the respective infusion, the test meal was presented and each participant was invited to eat and drink as much as they liked.
Beginning at 12:00 noon, the subjects scored their subjective feelings of hunger and fullness at 15 minute intervals throughout the treatments using a visual analogue scale of 0–10 and indicated the scores on a questionnaire. The scales and scores were designed as previously described (Welch I. M. et al. Gut 29:306–311 (1988); Welch I. M. et al. Gastroenterology 89:1293–1297 (1985); Drewe, J. et al. Gastroenterology 102:1654–1659 (1982)). For example, a score of 0 for hunger indicated the subject was not hungry at all, 2 indicated slightly hungry, 5 indicated moderately hungry, 8 indicated very hungry, and 10 indicated absolutely ravenous.
The quantity of food eaten and volume of fluid drunk was measured. The time for each subject to complete their meal was also measured. From these observations, the average rate of food and fluid intake, as well as the calorie intake, could be calculated. In the pre-meal period and after eating, blood was drawn at regular intervals into ethylenediaminetetraacetic acid (EDTA) tubes containing aprotinine (1000 KIU/ml blood) for glucose and hormone determinations.
The peptide was dissolved in 0.9% saline containing 0.5% human serum albumin, and prepared under aseptic conditions. Aliquots of 50 μg/5 ml were stored at −20° C. […] Treatments were delivered in a double-blind fashion.
The amount of food eaten and the amount of fluid drunk, the corresponding energy intake, and the duration of meal consumption were compared between the four by one-way analysis of variance (ANOVA) using the general linear model (GLM) procedure of the SAS software package (SAS Release 6.03. Cary, N C: SAS Institute, 1988). In the event of significant differences, ANOVA was followed by the Newman-Keuls multi-comparison test for pairwise comparisons (Sachs, L. Angewandte Statistik. Berlin, Springer, (1984)). […] Scores for hunger and fullness were compared at the different time points before and after meals between the different treatments using multiple paired t-tests with Bonferroni correction (Sachs, L. Angewandte Statistik. Berlin, Springer, (1984)).

[2] = Plasma glucose and hormone concentrations during graded GLP-1 infusion (Example 1); format: in vivo, human; settings: healthy male subjects
Method: Glucose concentrations were measured by the hexokinase method. Plasma hormone concentrations of insulin, cholecystokinin, GLP-1 and leptin were measured as depicted in FIG. 1. All hormone concentrations were determined by specific radioimmunoassay systems. For insulin and leptin concentrations commercially available test kits were used. […] GLP-1 was measured as previously described (Schirra, J. et al. Proc. Assoc. Am. Phys. 109(1):84–971 (1997)). The detection limit of the GLP-1 assay was 2 fmol/tube. […] Intra-assay and inter-assay coefficients of variation were 3.4% and 10.4%, respectively.

[3] = Plasma glucose and hormone concentrations during GLP-1 infusion (Example 2); format: in vivo, human; settings: diabetes mellitus type 2
Method: Blood was drawn through the indwelling anticubital cannula into syringes on ice. These contained EDTA (6 μmol/l) and aprotinine (1000 KIU/l). After centrifugation, plasma hormone analyses were kept frozen at −20° C. Plasma glucose was analyzed by the glucose oxidase method. Insulin and glucagon concentrations in plasma were analyzed by commercially available radioimmunoassay kits (Biermann, Bad Nauheim, Germany). Immunoreactive GLP-1 was measured using the specific polyclonal antibody GA 1178 (Affinity Research, Nottingham, UK). Immunoreactivities were extracted from plasma samples on C-18 cartridges using acetonitrile for elution of samples. The detection limit of the assay was 0.25 pmol/l. Intra-and interassay coefficients of variation were 3.8% and 10.9%, respectively.
Differences were considered significant if p was <0.05.

obese humans = settings: infusion of GLP-1 over 210 minutes; cited from earlier work
[4] = GLP-1 1.5 pmol/kg per min i.v. vs saline, diabetes mellitus type 2
[5] = GLP-1 1.5 pmol/kg per min i.v., 12 patients with diabetes mellitus type 2, mean ± SEM
[6] = pre-meal period, baseline vs 60 min of infusion, diabetes mellitus type 2
[7] = GLP-1 0.375 pmol/kg/min i.v. infusion
[8] = GLP-1 0.75 pmol/kg/min i.v. infusion
[9] = GLP-1 1.5 pmol/kg/min i.v. infusion
[10] = pre-meal period, significant only for highest dose of GLP-1, healthy male subjects

In the case of exendin (9–39) [reference compound], the “effect on GLP-1-induced inhibition of feeding” value (rats; GLP-1 injected into the cerebral ventricles of fasted rats) is listed as “blocked” and the food intake (rats; exendin (9–39) alone, satiated rats) is listed as “doubled food intake”.
In the case of `CC[C@H](C)[C@H](NC(=O)[C@H](Cc1ccccc1)NC(=O)[C@H](CCC(=O)O)NC(=O)[C@H](CCCCN)NC(=O)[C@H](C)NC(=O)[C@H](C)NC(=O)[C@H](CCC(N)=O)NC(=O)CNC(=O)[C@H](CCC(=O)O)NC(=O)[C@H](CC(C)C)NC(=O)[C@H](Cc1ccc(O)cc1)NC(=O)[C@H](CO)NC(=O)[C@H](CO)NC(=O)[C@@H](NC(=O)[C@H](CC(=O)O)NC(=O)[C@H](CO)NC(=O)[C@@H](NC(=O)[C@H](Cc1ccccc1)NC(=O)[C@@H](NC(=O)CNC(=O)[C@H](CCC(=O)O)NC(=O)[C@H](C)NC(=O)[C@@H](N)Cc1c[nH]cn1)[C@@H](C)O)[C@@H](C)O)C(C)C)C(=O)N[C@@H](C)C(=O)N[C@@H](Cc1c[nH]c2ccccc12)C(=O)N[C@@H](CC(C)C)C(=O)N[C@H](C(=O)N[C@@H](CCCCN)C(=O)NCC(=O)N[C@@H](CCCNC(=N)N)C(N)=O)C(C)C` [GLP-1, Glucagon-like peptide-1 (7–36) amide], the “decrease in calorie intake” value [1, 4] was 27%, the “maximal reduction in food consumption” value [1, 4] was 29% and the Calorie intake [1, 5] was 694 ± 79 kcal. For the same compound, the Fluid intake [1, 5] was 360 ± 60 mL, the “Food quantity” value [1, 5] was 268 ± 31 g and the “side effects / adverse reaction” value ([1]; GLP-1 1.5 pmol/kg per min i.v., diabetes mellitus type 2) was “None of the participants reported any abdominal discomfort or side effects”. For the same compound, the “fullness (VAS 0–10)” value [1, 6] was “increased feeling of fullness”, the “hunger (VAS 0–10)” value [1, 6] was “reduced degree of hunger” and the Calorie intake (healthy male subjects; [7]) was 1520 ± 95 keal. The Fluid intake (healthy male subjects; [7]) was 748 ± 52 mL, the Food quantity (healthy male subjects; [7]) was 531 ± 35 and the Meal duration (healthy male subjects; [7]) was 35 ± 3 min. It also gave a Calorie intake (healthy male subjects; [8]) of 1451 ± 101 keal, a Fluid intake (healthy male subjects; [8]) of 689 ± 48 mL and a Food quantity (healthy male subjects; [8]) of 516 ± 40. It also gave a Meal duration (healthy male subjects; [8]) of 34 ± 3 min, a Calorie intake (healthy male subjects; [9]) of 1107 ± 84 keal and a Fluid intake (healthy male subjects; [9]) of 584 ± 45 mL. The Food quantity (healthy male subjects; [9]) was 384 ± 34, the Meal duration (healthy male subjects; [9]) was 30 ± 3 min and the “reduction of fluid ingestion” value (healthy male subjects; GLP-1 i.v. infusion vs control, healthy male subjects) was 18%. The “side effects / adverse reactions” value (healthy male subjects; any infusion (0.375-1.5 pmol/kg per min i.v.), healthy male subjects) was “None of the participants reported any abdominal discomfort or side effects; also recorded: no overt side effects”, the “subjective feeling of fullness (visual analogue scale 0–10)” value (healthy male subjects; [10]) was “concomitant feeling of fullness; also recorded: early fullness” and the “subjective feeling of hunger (visual analogue scale 0–10)” value (healthy male subjects; [10]) was “reduced degree of hunger; also recorded: less hunger”. For the same compound, the “food intake / feeding” value (rats; intracerebroventricular administration, fasted rats) was “reduce food intake; also recorded: inhibited feeding”, the food intake (rats; intraperitoneal application, rats) was “did not have any effect” and the leptin levels ([2]; any dose of GLP-1 administered) was “did not change”. For the same compound, the “blood glucose and plasma insulin concentrations” value ([2]; graded i.v. doses of GLP-1 in 5% glucose) was “dose-dependent, short-lasting increase”, the “plasma GLP-1 concentration” value ([2]; highest dose of GLP-1 (1.5 pmol/kg per min) i.v. infusion) was “supraphysiological plasma concentrations” and the “plasma CCK concentrations” value ([2]; pre-meal period, any dose of GLP-1) was “did not change”. For the same compound, the glucagon response ([3]; GLP-1 1.5 pmol/kg per min i.v. vs saline) was “significantly reduced”, the “plasma concentrations of GLP-1” value ([3]; GLP-1 1.5 pmol/kg per min i.v.) was “increased the plasma concentrations of GLP-1” and the “blood glucose AUC” value ([3]; GLP-1 1.5 pmol/kg per min i.v., saline 1197±101) was 765 ± 65 mmol·min/L. The “insulin AUC” value ([3]; GLP-1 1.5 pmol/kg per min i.v., saline 1775±357) was 2920±516 μU×min/L and the effect on appetite (obese humans) was “no effect on appetite”.
